Paper PMC7156612, “Olinciguat, an Oral sGC Stimulator, Exhibits Diverse Pharmacology Across Preclinical Models of Cardiovascular, Metabolic, Renal, and Inflammatory Disease” (Frontiers in Pharmacology, 2020)
Entries after “also recorded” stand apart in the source; their conditions may differ.

Assays:
[1] = design: method as in Forgue et al., 2006; conditions: healthy volunteers, after 10 days of dosing at 20 mg QD; ref Forgue et al., 2006; read-out: Cmax plasma concentration; cited from earlier work
[2] = system: pulmonary artery smooth muscle from healthy subjects; design: method as in Yamamura et al., 2017; conditions: ref Yamamura et al., 2017; cited from earlier work
[3] = system: vascular smooth muscle cells (VSMC) from rat aorta; experiment: Rat aorta vascular smooth muscle cell proliferation (3H-thymidine incorporation); type: cell-based; conditions: tadalafil alone at or below 10 µM; 5% FBS, 10 µM DETA
Experimental: We explored the concentration response of olinciguat, tadalafil, and olinciguat in the presence of 1 μM tadalafil on rat aorta vascular smooth muscle proliferation, Tadalafil was used because it is a once-daily PDE5 inhibitor that, like the three-times-daily PDE5 inhibitor sildenafil, is approved for treatment of PAH and ED. Vascular smooth muscle cells (VSMC) from rat aorta (Lonza, R-ASM-580) were plated into a 96-well plate at 15,000 cells per well in DMEM:F12 containing 20% FBS and GA-1000 ([Gentamicin, Amphotericin B], Lonza, CC-40863) for 24 h at 37°C. Medium was removed and cells were washed once with 100 μl DMEM:F12 before adding 100 μl of DMEM:F12 and incubating for 24 h to induce quiescence. Cells were then cultured for 24 h in DMEM:F12 supplemented with 5% FBS, in the presence of test articles (vehicle, olinciguat, tadalafil) with 10 µM DETA. In the last 6 h, 0.2 μCi of ^3H-thymidine (American Radiolabeled Chemicals, ART 0178A) was added to each well to measure DNA synthesis by thymidine incorporation. Cells were washed once with HBSS and then trypsinized and transferred into FB filter plates (Millipore, MADVNOB). A rapid-filtration technique using a filtration apparatus (Millipore, MAVM0960R) with vacuum aspiration was used to harvest and rinse labeled cells (6× with 0.2 ml of chilled water). The radioactivity bound to the filters was counted with 80 µl of liquid scintillant (PerkinElmer, UltraGold MV, 6013159) in a scintillation counter (Perkin Elmer Microbeta instrument).
In the vascular smooth muscle cell proliferation experiment, a comparison between the IC50's for olinciguat alone vs oliniciguat in the presence of 1 µM tadalafil was performed by a two-tailed t-test using Log EC50 best fit values and SEs determined from a four-parameter nonlinear curve fit, assuming n=60 degrees of freedom.

[4] = system: pulmonary artery smooth muscle from idiopathic pulmonary arterial hypertension (PAH) patients; design: method as in Yamamura et al., 2017; conditions: ref Yamamura et al., 2017, read-out: IC50, inhibition of proliferation; cited from earlier work
[5] = design: method as in Tobin et al., 2018; conditions: ref Tobin et al., 2018; cited from earlier work
obese ZSF1 rats [6] = experiment: ZSF1 rat model of metabolic syndrome and diabetic nephropathy; type: in vivo
Experimental: Lean (n=8, 370–420 g, 15 weeks) and obese (n=32, 500–630 g, 15 weeks) male ZSF1 rats were studied. Rats were treated with enalapril to reflect standard of care drug treatment for patients with diabetic kidney disease. Dose modeling based on allometric scaling relationships estimated that a 10 mg/day enalapril dose in humans (within usual dose range of 10–40 mg based on prescribing information) corresponds to 1 mg/kg/day in rats ([Nair and Jacob, 2016]). To measure hemodynamics in freely moving animals, ZSF1 obese rats were implanted with telemetry transmitters (HD-S10, Data Sciences International) at 9–10 weeks of age, as described above.
The study included a 10-day pretreatment period and a 10-week treatment period. There were five groups of rats in the study. The lean ZSF1 control group (lean control, n=8) and one obese group (obese control, n=8) were fed normal chow and drinking water throughout the 10-day pretreatment period and the 10-week treatment period. Three groups of obese rats were treated with enalapril in drinking water (equivalent to 3 mg/kg/day) throughout the 10-day pretreatment period and the 10-week treatment period. During the treatment period, these enalapril-treated obese rats were administered normal chow (ENP, n=8) or chow containing olinciguat targeting the dose of 10 mg/kg/day (ENP+OLI10, n=8) or 30 mg/kg/day (ENP+OLI30, n=8). Blood and 24-h urine samples were obtained from all animals at baseline (immediately prior to initiation of enalapril treatment), the end of the 10-day pretreatment period (Day 10) and at week 5 and week 10 of the treatment period. Plasma samples were obtained from all olinciguat-treated animals for measurement of olinciguat exposure at week 10. During week 9 of treatment, rats were fasted for 16 h overnight prior to determination of fasting blood glucose using the AlphaTRAK (Abbott) glucose monitoring system. Body weight was measured once every other week. At the end of the study, rats were anesthetized and perfused via the left ventricle with heparinized PBS (1 U/ml heparin) containing IBMX (1 mM). Organs were collected and weighed, and plasma was collected in EDTA tubes. For serum, blood was collected in serum separator tubes, maintained at room temperature for at least 30 min and centrifuged at 6,000 rpm for 10 min, and then stored at −80°C until analysis. Urine and serum samples were analyzed using the Randox Daytona Clinical Chemistry Analyzer (Randox, Kearneysville, WV) for urine protein, serum cholesterol and serum triglycerides. All measurements were performed in accordance with manufacturer's instructions.
For histology, one kidney from each rat was fixed in 10% formalin, then embedded in paraffin. Slides were prepared and stained with hematoxylin and eosin (H&E) and periodic-acid Schiff (PAS) for light microscopic analysis. Kidney sections were evaluated for the presence of glomerular pathology, tubular damage, interstitial inflammation, interstitial fibrosis, and vascular alterations. Severity-based scoring based on these evaluations was performed by a trained pathologist.
For the ZSF1 experiment, data are expressed as mean ± standard error of the mean (SEM).
In the ZSF1 study, change from baseline NT-proBNP, week 10 heart, kidney, and liver weight, urine volume, cholesterol, triglycerides, glucose, and renal histopathology sum score were analyzed by one-way ANOVA corrected for multiple comparisons using Tukey's method. Statistically significant differences vs the obese control and vs the ENP group are indicated in the results. MAP and UPE were analyzed by an ordinary two-way ANOVA with timepoint and treatment group as independent variables, followed by a Tukey's multiple comparisons test. Within each treatment group, significant differences vs baseline are indicated in the results. At week 10, statistically significant differences vs the obese control and vs the ENP control are also indicated in the results.

obese ZSF1 rats [7] = system: obese ZSF1 rats; design: method as in Bilan et al., 2011; conditions: 8-week old obese ZSF1 rats, enalapril 60 mg/kg/day in drinking water for 24 weeks; ref Bilan et al., 2011; cited from earlier work

## CN1CC(=O)N2[C@H](c3ccc4c(c3)OCO4)c3[nH]c4ccccc4c3C[C@@H]2C1=O [tadalafil]
[1]
  Cmax: 1000 nM
[2]
  effect on proliferation: no effect
[3]
  inhibition of VSMC proliferation by tadalafil alone: did not inhibit vascular smooth muscle cell proliferation; also recorded: did not inhibit VSMC proliferation
[4]
  IC50: 4.5 µM

## OC(CNc1nc(-c2cc(-c3ccon3)n(Cc3ccccc3F)n2)ncc1F)(C(F)(F)F)C(F)(F)F [praliciguat]
[5]
  volume of distribution: 10.5 L/kg

## CCOC(=O)[C@H](CCc1ccccc1)N[C@@H](C)C(=O)N1CCC[C@H]1C(=O)O [ENP, reference compound]
Obese ZSF1 rats [6]; obese ZSF1, enalapril 3 mg/kg/day in drinking water, obese control 122 ± 1
  MAP at Week 10: 111 ± 1 mmHg
Obese ZSF1 rats [6]; obese ZSF1, enalapril 3 mg/kg/day, week 9, obese control 279.4 ± 36.5
  fasting blood glucose: 276.5 ± 30.9 mg/dL
Obese ZSF1 rats [6]; obese ZSF1, enalapril 3 mg/kg/day, baseline to end of treatment, obese control +86 ± 22
  change from baseline NT-proBNP: +44 ± 28 pg/ml
Obese ZSF1 rats [6]; obese ZSF1, enalapril 3 mg/kg/day, obese control 9.7 ± 0.2, lean 7.4 ± 0.07
  total kidney weight: 9.5 ± 0.3 g/kg BW
Obese ZSF1 rats [6]; obese ZSF1, enalapril 3 mg/kg/day, obese control 14.6 ± 0.2, p=0.025 vs obese control
  renal pathology sum score: 12.2 ± 0.4
Obese ZSF1 rats [6]; obese ZSF1, enalapril 3 mg/kg/day, obese control 72.0 ± 1.9
  liver weight: 70.5 ± 1.1 g/kg BW
Obese ZSF1 rats [6]; obese ZSF1, enalapril 3 mg/kg/day, obese control 428.6 ± 12.7
  serum cholesterol at week 10: 383 ± 9.8 mg/dL
Obese ZSF1 rats [6]; obese ZSF1, enalapril 3 mg/kg/day, obese control 4913 ± 487.1
  serum triglycerides at week 10: 3850 ± 326.0 mg/dL
Obese ZSF1 rats [6]; obese ZSF1, enalapril alone 3 mg/kg/day, obese controls 153%
  increase of proteinuria over 10-week treatment period: 168%
Obese ZSF1 rats [6]; obese ZSF1 treated with enalapril
  kidney weight, percent greater than in the lean control group: 28%
Obese ZSF1 rats [7]
  reduction in MAP: ~ 50 mmHg
